According to ChEMBL document CHEMBL5543172, “Novel Isoalantolactone-Based Derivatives as Potent NLRP3 Inflammasome Inhibitors: Design, Synthesis, and Biological Characterization” (J Med Chem, 2024):

Experiments:
[1] = Metabolic stability in human liver microsomes assessed as half life preincubated for 5 mins followed by NADPH addition and measured upto 60 mins by LC-MS/MS analysis; type: ADME, Microsome; settings: time < 65 min
[2] = Metabolic stability in mouse liver microsomes assessed as half life preincubated for 5 mins followed by NADPH addition and measured upto 60 mins by LC-MS/MS analysis; type: ADME, Microsome; settings: time < 65 min
[3] = Cmax in male C57BL/6 mouse at 30 mg/kg, ip measured upto 1440 mins by LC-MS/MS analysis; type: ADME, organism-based; settings: in vivo
[4] = Drug distribution in C57BL/6 mouse plasma at 30 mg/kg, ip measured after 0.5 hrs by LC-MS/MS analysis; type: ADME, organism-based
[5] = Drug distribution in C57BL/6 mouse colon at 30 mg/kg, ip measured after 0.5 hrs by LC-MS/MS analysis; type: ADME, organism-based; settings: read-out: Drug uptake
[6] = Drug distribution in C57BL/6 mouse colon at 30 mg/kg, ip measured after 8 hrs by LC-MS/MS analysis; type: ADME, organism-based; settings: read-out: Drug uptake
[7] = Tmax in male C57BL/6 mouse at 30 mg/kg, ip measured upto 1440 mins by LC-MS/MS analysis; type: ADME, organism-based; settings: in vivo
[8] = Drug distribution in C57BL/6 mouse colon at 30 mg/kg, ip measured after 24 hrs by LC-MS/MS analysis; type: ADME, organism-based; settings: read-out: Drug uptake
[9] = MRT (0 to t) in male C57BL/6 mouse at 30 mg/kg, ip measured upto 1440 mins by LC-MS/MS analysis; type: ADME, organism-based; settings: in vivo
[10] = Drug distribution in C57BL/6 mouse colon at 30 mg/kg, ip measured after 2 hrs by LC-MS/MS analysis; type: ADME, organism-based; settings: read-out: Drug uptake
[11] = Apparent oral clearance in male C57BL/6 mouse at 30 mg/kg, ip measured upto 1440 mins by LC-MS/MS analysis; type: ADME, organism-based; settings: in vivo, read-out: CLz/F (converted)
[12] = Drug distribution in C57BL/6 mouse plasma at 30 mg/kg, ip measured after 2 hrs by LC-MS/MS analysis; type: ADME, organism-based
[13] = Half life in male C57BL/6 mouse at 30 mg/kg, ip measured upto 1440 mins by LC-MS/MS analysis; type: ADME, organism-based; settings: in vivo
[14] = AUC (0 to t) in male C57BL/6 mouse at 30 mg/kg, ip measured upto 1440 mins by LC-MS/MS analysis; type: ADME, organism-based; settings: in vivo

| half-life [1] | half-life [2] | SMILES | also measured |
| --- | --- | --- | --- |
| 95.7 min | 12.6 min | C=C1C(=O)O[C@@H]2C[C@@]3(C)CC[C@@H](OC(=O)c4cc(Cl)cnc4Cl)C(=C)[C@@H]3C[C@H]12 |  |
| 20.6 min | 27.2 min | C=C1C(=O)O[C@@H]2C[C@@]3(C)CC[C@@H](OC(=O)/C=C/C(=O)c4ccc(C(F)(F)F)cc4)C(=C)[C@@H]3C[C@H]12 |  |
| 31.1 min | 44.1 min | C=C1C(=O)O[C@@H]2C[C@@]3(C)CC[C@@H](OC(=O)/C=C/C(=O)c4ccc(F)cc4)C(=C)[C@@H]3C[C@H]12 |  |
| 10.4 min | 19.2 min | C=C1C(=O)O[C@@H]2C[C@@]3(C)CC[C@@H](OC(=O)/C=C/C(=O)c4ccccc4)C(=C)[C@@H]3C[C@H]12 |  |
| 118 min | 47.1 min | C=C1C(=O)O[C@@H]2C[C@@]3(C)CC[C@@H](OC(=O)c4c(Cl)ccnc4Cl)C(=C)[C@@H]3C[C@H]12 |  |
| 4.47 min | 9.1 min | C=C1C(=O)O[C@@H]2C[C@@]3(C)CCCC(=C)[C@@H]3C[C@H]12 [ISOALANTOLACTONE] | Cmax [3]: 159 ng/mL; concentration at 0.5 h [4]: 27.4 ng/mL; concentration at 0.5 h [5]: 3320 ng/g; concentration at 8 h [6]: 3120 ng/g; Tmax [7]: 13.2 min; concentration at 24 h [8]: 26.9 ng/g; MRT last at 24 h [9]: 1.84 h; concentration at 2 h [10]: 293 ng/g; CL/F [11]: 2020 mL/min/kg; concentration at 2 h [12]: 7.71 ng/mL; half-life [13]: 127 min; AUC(0-t) at 24 h [14]: 230 ng·h/mL |
